ChEMBL document CHEMBL5625253, “Discovery of novel benzofuran-based derivatives as acetylcholinesterase inhibitors for the treatment of Alzheimer's disease: Design, synthesis, biological evaluation, molecular docking and 3D-QSAR investigation” (Eur J Med Chem, 2023)
The source made the active and inactive calls. No cut-off for these calls is given here.

Experiments:
[1] = Antioxidant activity assessed as DPPH radical scavenging activity at 0.05 ug/ml incubated for 1 hr under dark condition by absorbance based assay relative to control; format: functional; conditions: dose 0.05 µg/ml
Acetylcholinesterase = Acetylcholinesterase (Homo sapiens, UniProt P22303); assay: Inhibition of AChE (unknown origin) using […] as substrate incubated for 15 to 20 mins by DTNB reagent based Ellman's method
Acetylcholinesterase, sequence (P22303 whole entry): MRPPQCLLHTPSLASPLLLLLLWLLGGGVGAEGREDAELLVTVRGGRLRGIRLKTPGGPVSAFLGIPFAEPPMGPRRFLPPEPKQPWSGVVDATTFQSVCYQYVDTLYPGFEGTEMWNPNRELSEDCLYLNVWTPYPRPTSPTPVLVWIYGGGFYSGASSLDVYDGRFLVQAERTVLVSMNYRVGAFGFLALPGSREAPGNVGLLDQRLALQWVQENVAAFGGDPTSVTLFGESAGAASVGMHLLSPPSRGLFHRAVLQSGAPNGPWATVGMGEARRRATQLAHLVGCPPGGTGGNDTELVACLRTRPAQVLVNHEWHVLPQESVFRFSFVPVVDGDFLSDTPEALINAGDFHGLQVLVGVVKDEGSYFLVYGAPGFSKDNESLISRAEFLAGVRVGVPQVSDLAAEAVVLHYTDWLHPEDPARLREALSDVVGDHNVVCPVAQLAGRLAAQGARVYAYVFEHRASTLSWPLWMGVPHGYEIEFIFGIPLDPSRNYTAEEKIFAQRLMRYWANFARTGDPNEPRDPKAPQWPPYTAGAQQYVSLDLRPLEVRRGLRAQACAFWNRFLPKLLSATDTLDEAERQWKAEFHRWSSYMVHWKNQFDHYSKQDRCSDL

[2] = Antioxidant activity assessed as DPPH radical scavenging activity at 0.01 ug/ml incubated for 1 hr under dark condition by absorbance based assay relative to control; format: functional; conditions: dose 0.01 µg/ml
Rattus norvegicus [3] = assay: Antialzheimer activity against AlCl3-induced Alzheimer's disease Wistar albino rat model assessed as degeneration of pyramidal neurons in hippocampus at 10 mg/kg,po for 6 weeks by hematoxylin and eosin staining based microscopic analysis; format: functional
Rattus norvegicus [4] = assay: Antialzheimer activity against AlCl3-induced Alzheimer's disease Wistar albino rat model assessed as GSH level in brain at 10 mg/kg,po for 6 weeks; format: functional
Rattus norvegicus [5] = assay: Antialzheimer activity against AlCl3-induced Alzheimer's disease Wistar albino rat model assessed as improvement in cognitive ability at 10 mg/kg,po for 6 weeks by T-maze test; format: functional
Rattus norvegicus [6] = assay: Antialzheimer activity against AlCl3-induced Alzheimer's disease Wistar albino rat model assessed as gliosis at 10 mg/kg,po for 6 weeks by hematoxylin and eosin staining based microscopic analysis; format: functional
Rattus norvegicus [7] = assay: Antialzheimer activity against AlCl3-induced Alzheimer's disease Wistar albino rat model assessed as change in MDA level in brain at 10 mg/kg,po for 6 weeks relative to control; format: functional
Rattus norvegicus [8] = assay: Antialzheimer activity against AlCl3-induced Alzheimer's disease Wistar albino rat model assessed as improvement in GSH level in brain at 10 mg/kg,po for 6 weeks relative to control; format: functional
Rattus norvegicus [9] = assay: Antialzheimer activity against AlCl3-induced Alzheimer's disease Wistar albino rat model assessed as improvement in MDA level in brain at 10 mg/kg,po for 6 weeks relative to control; format: functional
Rattus norvegicus [10] = assay: Antialzheimer activity against AlCl3-induced Alzheimer's disease Wistar albino rat model assessed as time taken to reach the food at 10 mg/kg,po for 6 weeks by T-maze test; format: functional
Rattus norvegicus [11] = assay: Antialzheimer activity against AlCl3-induced Alzheimer's disease Wistar albino rat model assessed as change in GSH level in brain at 10 mg/kg,po for 6 weeks relative to control; format: functional
Rattus norvegicus [12] = assay: Antialzheimer activity against AlCl3-induced Alzheimer's disease Wistar albino rat model assessed as MDA level in brain at 10 mg/kg,po for 6 weeks; format: functional
[13] = Acute toxicity in Wistar rat assessed as mortality at 50 mg/kg,po observed after 1 month; format: organism-based; conditions: in vivo, 730 h, time 1 months
Rattus norvegicus [14] = assay: Antialzheimer activity against AlCl3-induced Alzheimer's disease Wistar albino rat model assessed as decrease in cellular density in hippocampal region of brain at 10 mg/kg,po for 6 weeks by hematoxylin and eosin staining based microscopic analysis; format: functional, organism-based
[15] = Toxicity in Wistar rat assessed as mean platelet volume in blood at 10 mg/kg,po (reference value: 7.3 +/- 0.12 fL); format: organism-based; conditions: in vivo
[16] = Acute toxicity in Wistar rat assessed as mortality at 50 mg/kg,po observed after 24 hrs; format: organism-based; conditions: in vivo
[17] = Toxicity in Wistar rat assessed as […] cell volume in blood at 10 mg/kg,po (reference value: 43 +/- 3.1 %); format: organism-based; conditions: in vivo
[18] = Acute toxicity in Wistar rat assessed as mortality at 100 mg/kg,po observed after 24 hrs; format: organism-based; conditions: in vivo
[19] = Acute toxicity in Wistar rat assessed as mortality at 10 mg/kg,po administrated for 1 month; format: organism-based; conditions: in vivo, 730 h, time 1 months
[20] = Toxicity in Wistar rat assessed as urea level in liver at 10 mg/kg,po (reference value: 33.6 +/- 2.65 mg/dl); format: organism-based; conditions: in vivo
[21] = Toxicity in Wistar rat assessed as red blood cell distribution width in blood at 10 mg/kg,po (reference value: 17.2 +/- 0.22 %); format: organism-based; conditions: in vivo
[22] = Acute toxicity in Wistar rat assessed as mortality at 100 mg/kg,po observed after 1 month; format: organism-based; conditions: in vivo, 730 h, time 1 months
[23] = Toxicity in Wistar rat assessed as mean corpuscular volume in blood at 10 mg/kg,po (reference value: 59 +/- 5 fL); format: organism-based; conditions: in vivo
[24] = Toxicity in Wistar rat assessed as albumin level in liver at 10 mg/kg,po (reference value: 3.28 +/- 0.43 mg/dl); format: organism-based; conditions: in vivo
[25] = Toxicity in Wistar rat assessed as histopathological change in brain at 10 mg/kg,po by hematoxylin and eosin staining based microscopic analysis; format: organism-based; conditions: in vivo
[26] = Toxicity in Wistar rat assessed as mean corpuscular hemoglobin concentration in blood at 10 mg/kg,po (reference value: 33.8 +/- 2.1 g/dl); format: organism-based; conditions: in vivo
[27] = Toxicity in Wistar rat assessed as bilirubin level in liver at 10 mg/kg,po (reference value: 0.6 +/- 0.08 mg/dl); format: organism-based; conditions: in vivo
[28] = Toxicity in Wistar rat assessed as AST level in liver at 10 mg/kg,po (reference value: 67 +/- 5.1 U/L); format: organism-based; conditions: in vivo
[29] = Toxicity in Wistar rat assessed as haematocrit level in blood at 10 mg/kg,po (reference value: 38.16 +/- 2.44 %); format: organism-based; conditions: in vivo
[30] = Toxicity in Wistar rat assessed as Kupffer cell proliferation in liver at 10 mg/kg,po by hematoxylin and eosin staining based microscopic analysis; format: organism-based; conditions: in vivo
[31] = Toxicity in Wistar rat assessed as hemoglobin level in blood at 10 mg/kg,po (reference value: 14.5 +/- 1 g/dl); format: organism-based; conditions: in vivo
[32] = Toxicity in Wistar rat assessed as histopathological change in kidney at 10 mg/kg,po by hematoxylin and eosin staining based microscopic analysis; format: organism-based; conditions: in vivo
[33] = Toxicity in Wistar rat assessed as histopathological change in heart at 10 mg/kg,po by hematoxylin and eosin staining based microscopic analysis; format: organism-based; conditions: in vivo
[34] = Toxicity in Wistar rat assessed as creatinine level in liver at 10 mg/kg,po (reference value: 0.68 +/- 0.03 mg/dl); format: organism-based; conditions: in vivo
[35] = Toxicity in Wistar rat assessed as ALP level in liver at 10 mg/kg,po (reference value: 140 +/- 6 U/L); format: organism-based; conditions: in vivo
[36] = Toxicity in Wistar rat assessed as RBC level in blood at 10 mg/kg,po; format: organism-based, Erythrocyte; conditions: in vivo
[37] = Toxicity in Wistar rat assessed as mean corpuscular hemoglobin in blood at 10 mg/kg,po (reference value: 19 +/- 1.77 pg); format: organism-based; conditions: in vivo
[38] = Toxicity in Wistar rat assessed as glucose level in liver at 10 mg/kg,po (reference value: 105 +/- 8.44 mg/dl); format: organism-based; conditions: in vivo
[39] = Acute toxicity in Wistar rat assessed as loose bowels at 10 mg/kg,po administrated for 1 month; format: organism-based; conditions: in vivo, 730 h, time 1 months
[40] = Toxicity in Wistar rat assessed as ALT level in liver at 10 mg/kg,po (reference value: 27 +/- 2 U/L); format: organism-based; conditions: in vivo

Structure (SMILES): O=C(/C=C/Nc1ccc(F)cc1)c1cc2ccccc2o1
- Activity [1]: 76.1%
- IC50 (Acetylcholinesterase): 487 nM
- Activity [2]: 73.9%

Structure (SMILES): NS(=O)(=O)c1ccc(N/C=C/C(=O)c2cc3ccccc3o2)cc1
- Activity [1]: 13%
- IC50 (Acetylcholinesterase): 882 nM
- Activity [2]: 18.4%

Structure (SMILES): COc1cc2c(cc1OC)C(=O)C(CC1CCN(Cc3ccccc3)CC1)C2 (configuration not stated) [DONEPEZIL]
- Activity (Rattus norvegicus [3]): <10%
- Activity [1]: 30.2%
- Activity (Rattus norvegicus [4]): 17.62 mg
- Activity (Rattus norvegicus [5]): 112.14%
- Activity (Rattus norvegicus [6]): <10%
- Activity [2]: 20.4%
- Activity (Rattus norvegicus [7]): 67.86%
- Activity (Rattus norvegicus [8]): 33.02%
- Activity (Rattus norvegicus [9]): 278.43%
- Time (Rattus norvegicus [10]): 26 s
- Activity (Rattus norvegicus [11]): 18.05%
- Activity (Rattus norvegicus [12]): 47.17 nmol

Structure (SMILES): N=C(N)NS(=O)(=O)c1ccc(N/C=C/C(=O)c2cc3ccccc3o2)cc1
- Activity [1]: 35%
- IC50 (Acetylcholinesterase): 908 nM
- Activity [2]: 25%

Structure (SMILES): O=C(/C=C/Nc1ccc(S(=O)(=O)Nc2ncccn2)cc1)c1cc2ccccc2o1
- Activity [1]: 37.5%
- IC50 (Acetylcholinesterase): 357 nM
- Activity [2]: 5%

Structure (SMILES): O=C(O)c1ccc(N/C=C/C(=O)c2cc3ccccc3o2)cc1
- Activity [1]: 35%
- IC50 (Acetylcholinesterase): 794 nM
- Activity [2]: 5.71%

Structure (SMILES): O=C(/C=C/Nc1ccc(S(=O)(=O)Nc2ccccn2)cc1)c1cc2ccccc2o1
- Activity [1]: 76.1%
- IC50 (Acetylcholinesterase): 1070 nM
- Activity [2]: 2.2%

Structure (SMILES): Cc1cccc(N/C=C/C(=O)c2cc3ccccc3o2)c1
- Activity [1]: 14.3%
- IC50 (Acetylcholinesterase): 617 nM
- Activity [2]: 12.1%

Structure (SMILES): O=C(/C=C/Nc1ccccc1O)c1cc2ccccc2o1
- Activity [1]: 90%
- IC50 (Acetylcholinesterase): 308 nM
- Activity [2]: 65.5%

Structure (SMILES): CC(=O)c1ccc(N/C=C/C(=O)c2cc3ccccc3o2)cc1
- Activity [1]: 27%
- IC50 (Acetylcholinesterase): 5910 nM
- Activity [2]: 10%

Structure (SMILES): O=C(O)c1cccc(N/C=C/C(=O)c2cc3ccccc3o2)c1
- Activity [1]: 65%
- IC50 (Acetylcholinesterase): 3770 nM
- Activity [2]: 22.5%

Structure (SMILES): O=C(/C=C/Nc1cccc([N+](=O)[O-])c1)c1cc2ccccc2o1
- Activity [1]: 82.6%
- IC50 (Acetylcholinesterase): 736 nM
- Activity [2]: 76.1%

Structure (SMILES): O=C(/C=C/Nc1ccc(Cl)cc1)c1cc2ccccc2o1
- Activity [1]: 65.3%
- IC50 (Acetylcholinesterase): 2140 nM
- Activity [2]: 28.2%

Structure (SMILES): O=C(/C=C/Nc1ccccc1C(=O)O)c1cc2ccccc2o1
- Activity [1]: 65%
- IC50 (Acetylcholinesterase): 2070 nM
- Activity [2]: 23.5%

Structure (SMILES): CN(C)/C=C/C(=O)c1cc2ccccc2o1
- Activity [1]: 56.4%
- IC50 (Acetylcholinesterase): 2690 nM
- Activity [2]: 11.4%

Structure (SMILES): Cc1cc(NS(=O)(=O)c2ccc(N/C=C/C(=O)c3cc4ccccc4o3)cc2)no1
- Activity [1]: 65.2%
- IC50 (Acetylcholinesterase): 283 nM
- Activity [2]: 71.7%

Structure (SMILES): Cc1ccc(N/C=C/C(=O)c2cc3ccccc3o2)cc1
- Activity [1]: 40%
- IC50 (Acetylcholinesterase): 397 nM
- Activity [2]: 21.3%

Structure (SMILES): O=C(/C=C/Nc1cccc(Br)c1)c1cc2ccccc2o1
- Activity [1]: 17.9%
- IC50 (Acetylcholinesterase): 313 nM
- Activity [2]: 9.29%

Structure (SMILES): O=C1O[C@H]([C@@H](O)CO)C(O)=C1O
- Activity [1]: 89%
- Activity [2]: 81%

Structure (SMILES): O=C(/C=C/Nc1ccc(Br)cc1)c1cc2ccccc2o1
- Activity [1]: 27%
- IC50 (Acetylcholinesterase): 1100 nM
- Activity [2]: 22.2%

Structure (SMILES): CC(=O)c1cccc(N/C=C/C(=O)c2cc3ccccc3o2)c1
- Activity [13]: Non-Toxic
- Activity (Rattus norvegicus [14]): Active
- Activity [15]: 6.9 fL
- Activity [16]: Non-Toxic
- Activity [17]: 42.16%
- mortality at 24 h [18]: 25%
- Activity (Rattus norvegicus [3]): <10%
- Activity [19]: Non-Toxic
- Activity [20]: 32 mg/dL
- Activity [21]: 16.6%
- Activity [1]: 67.6%
- IC50 (Acetylcholinesterase): 190 nM
- Activity (Rattus norvegicus [4]): 16.32 mg
- Activity (Rattus norvegicus [5]): 107.04%
- Activity [22]: Non-Toxic
- Activity (Rattus norvegicus [6]): <10%
- Activity [23]: 56 fL
- Activity [2]: 63.1%
- Activity [24]: 3.3 mg/dL
- Activity [25]: Non-Toxic
- Activity (Rattus norvegicus [7]): 103.35%
- Activity [26]: 31 g/dL
- Activity (Rattus norvegicus [8]): 26.98%
- Activity [27]: 0.67 mg/dL
- Activity (Rattus norvegicus [9]): 242.95%
- Activity [28]: 68 U/L
- Activity [29]: 39.4%
- Time (Rattus norvegicus [10]): 27 s
- Activity (Rattus norvegicus [11]): 24.09%
- Activity [30]: Non-Toxic
- Activity [31]: 14.8 g/dL
- Activity [32]: Non-Toxic
- Activity (Rattus norvegicus [12]): 57.14 nmol
- Activity [33]: Non-Toxic
- Activity [34]: 0.72 mg/dL
- Activity [35]: 136 U/L
- Activity [36]: 6.29 10^6/µL
- Activity [37]: 18.6 pg
- Activity [38]: 115 mg/dL
- Activity [39]: Non-Toxic
- Activity [40]: 29 U/L

Structure (SMILES): CCOC(=O)c1ccc(N/C=C/C(=O)c2cc3ccccc3o2)cc1
- Activity [1]: 28.6%
- IC50 (Acetylcholinesterase): 2130 nM
- Activity [2]: 21.4%
